Source: patent US20030032774A1, “Novel opioid peptides for the treatment of pain” (priority 1994, published 2003)
Read-outs that look alike come from different tables or passages of the source. Square brackets hold non-standard residues; d marks the D form. Peptide text beside a SMILES is read from it. * marks the point of attachment. Phe(4-NO2) = N[C@@H](Cc1ccc([N+](=O)[O-])cc1)C(=O)O; Phe(4-N3) = [N-]=[N+]=Nc1ccc(C[C@H](N)C(=O)O)cc1; 1Nal = N[C@@H](Cc1cccc2ccccc12)C(=O)O; 2Nal = N[C@@H](Cc1ccc2ccccc2c1)C(=O)O; NMeF = CN[C@@H](Cc1ccccc1)C(=O)O; Tic = O=C(O)[C@@H]1Cc2ccccc2CN1; dNle = CCCC[C@@H](N)C(=O)O; dAbu = CC[C@@H](N)C(=O)O; Ac5c = NC1(C(=O)O)CCCC1; Aib = CC(C)(N)C(=O)O; Bn = c1ccc(C*)cc1

Assays:
[1] = target: T1, μ receptor (Rattus norvegicus, UniProt P33535); assay: Radioligand binding assay, μ opioid receptor ((3H)-DAMGO, brain membranes)
T1 construct: the brains (minus the cerebellum) were removed, placed in ice-cold saline solution, and then homogenized; from tissue; host or cells: rat brain (minus cerebellum) membranes
Description: PBQ (phenyl-ρ-benzoquinone) induced writhing in mice is an assessment of both central and peripheral analgesia (see Sigmund, et al., Proc. Soc. Exp. Biol. Med. 95:729 (1957)). Central analgesia is determined by the inhibition of a hot-plate response in mice (see, Wolfe, et al., J. Pharmacol. Exp. Ther. 80:300 (1944)). Assays measuring opioid receptor binding affinities for μ and δ receptors as well as the GPI assay were determined through experimental protocol set out in Schiller et al. (Biophys. Res. Commun. 85:1322 (1975)). The references by Sigmund, et al., Wolfe, et al., and Schiller, et al. are each hereby incorporated by reference.
Male Sprague-Dawley rats weighing between 350-450 g were sacrificed by inhalation of CO2. The rats were decapitated and the brains (minus the cerebellum) were removed, placed in ice-cold saline solution, and then homogenized in ice-cold 50 mM Tris buffer pH 7.4 (10 ml/brain). Membranes were centrifuged at 14000 rpm for 30 min. at 4° C. The pellets were re-suspended in approximately 6 ml/brain of ice-cold Tris buffer 50 mM pH 7.4 and stored at −78° C. until ready for use. Protein quantification of the brain homogenate was conducted according to protein assay kit purchased (Bio-Rad).
(^3H)-DAMGO and (^3H)-DAGLE were used as radioligands for the μ and δ receptors, respectively. Radioligand 50 μl, membranes 100 μl, and serially diluted test compound were incubated for 1 hr at 22° C. Nonspecific binding was determined using a 500 fold excess of unlabeled ligand in the presence of tracer and membranes. Free ligand was separated from bound by filtration through Whatman GF/B paper (presoaked in polyethylenimine 1% aqueous solution) and rinsing with ice-cold 50 mM Tris pH 7.4 using a Brandel cell harvester. The filters were dried and radioactivity was counted in a 24 well microplate in the presence of 500 μl scintillant per well. Radioactivity was measured using a Wallace 1450 Microbeta counter. Ki's for the various compounds were determined from the IC50 according to the Cheng and Prusoff equation.

[2] = target: μ receptors (Cavia porcellus, UniProt P97266); assay: Guinea Pig Ileum (GPI) assay, longitudinal muscle preparation
Description: The activity of the peptide compounds on μ receptors was determined using the Guinea Pig Ileum (GPI) assay (longitudinal muscle preparation) according to the procedures described in Schiller et al., Biophys. Res. Commun. 85:1322 (1975).

[3] = test system: PBQ induced writhing in mice; assay: PBQ (phenylquinone)-induced writhing assay; assay type: in vivo, mouse; settings: mouse s.c.
Description: The test was performed on CD #1 male mice weighing between 18 and 22 g. Mice were weighed, marked and then injected, by the intraperitoneal route, with 0.3 ml/20 g by weight of a solution of phenylquinone at 0.02%. The contortions which appeared during a 15 minute time period following the injection were counted. The phenylquinone was injected at time intervals of 5, 20 or 60 minutes after administration of the compound (or medium, or standard) by subcutaneous route. It was injected at time intervals of 60 minutes after the administration of the compound (or medium, or standard) by oral route;
The 0.02% phenylquinone solution was prepared as follows: 20 mg of phenylquinone was dissolved in 5 ml ethanol 90% (Sigma). The dissolved phenylquinone was slowly added to 95 ml of distilled water continuously shaken and preheated (not boiled). The phenylquinone solution was, at all times protected from light and a new solution was prepared every day for the test. Each group usually contained 10 mice. If an antagonist, such as naloxone, was used, it was administered 20 minutes before the compound (or the medium, or the standard) by the intraperitoneal route.
Writhing assays were performed on CD#1 male mice weighing between […]. Assays were carried out as described in Example 3 and results are summarized below in Table 2.

T1 sequence (P33535 whole entry): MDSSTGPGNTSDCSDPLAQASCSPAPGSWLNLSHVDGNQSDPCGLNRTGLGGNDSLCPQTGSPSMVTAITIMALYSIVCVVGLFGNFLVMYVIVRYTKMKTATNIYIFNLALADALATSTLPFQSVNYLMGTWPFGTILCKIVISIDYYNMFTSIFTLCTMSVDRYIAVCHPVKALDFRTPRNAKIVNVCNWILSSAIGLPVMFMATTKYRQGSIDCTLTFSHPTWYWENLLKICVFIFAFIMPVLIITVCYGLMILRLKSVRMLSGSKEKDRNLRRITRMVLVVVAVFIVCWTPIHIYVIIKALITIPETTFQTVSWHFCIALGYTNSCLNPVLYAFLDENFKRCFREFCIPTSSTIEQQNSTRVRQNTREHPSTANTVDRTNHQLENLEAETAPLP
Chain of μ receptors (P97266 whole entry, looked up): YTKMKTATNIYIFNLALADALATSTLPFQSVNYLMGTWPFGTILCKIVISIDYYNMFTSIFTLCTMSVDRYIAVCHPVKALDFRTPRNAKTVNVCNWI

Compound	Ki ([1]; Ki^μ, Table 1) [µM]	ED50(PBQ) ([3]; 20 min post administration) [mg/kg]	further results
NC(=O)[C@H](Cc1ccccc1)NC(=O)[C@H](Cc1ccccc1)NC(=O)[C@@H](Cc1ccccc1)NC(=O)[C@@H](N)Cc1ccc(O)cc1 [BCH753, H-Tyr-D-Phe-Phe-Phe-NH2] (H-Y[dF]FF-NH2)	0.00363	>20	IC50 ([2]; GPI(IC50), Table 1): 0.247 µM
CC(C)(NC(=O)[C@@H](N)Cc1ccc(O)cc1)C(=O)N[C@@H](Cc1ccccc1)C(=O)N[C@@H](Cc1ccccc1)C(N)=O [BCH754, H-Tyr-Aib-Phe-Phe-NH2] (H-Y[Aib]FF-NH2)		>20	
CCCC[C@@H](NC(=O)[C@@H](N)Cc1ccc(O)cc1)C(=O)N[C@@H](Cc1ccccc1)C(=O)N[C@@H](Cc1ccccc1)C(N)=O [BCH755, H-Tyr-D-Nle-Phe-Phe-NH2] (H-Y[dNle]FF-NH2)	0.000968		IC50 ([2]; GPI(IC50), Table 1): 0.015 µM; ED50(PBQ) ([3]; 5 min.): 2.5 (5 min.) mg/kg
C[C@@H](NC(=O)[C@@H](N)Cc1ccc(O)cc1)C(=O)N[C@@H](Cc1ccccc1)C(=O)N[C@@H](Cc1ccc2ccccc2c1)C(N)=O [BCH757, H-Tyr-D-Ala-Phe-2′-Nal-NH2] (H-Y[dA]F[2Nal]-NH2)	0.000655		IC50 ([2]; GPI(IC50), Table 1): 0.002 µM; ED50(PBQ) ([3]; 5 min.): 1.1 (5 min.) mg/kg
C[C@@H](NC(=O)[C@@H](N)Cc1ccc(O)cc1)C(=O)N[C@@H](Cc1ccc2ccccc2c1)C(=O)N[C@@H](Cc1cccc2ccccc12)C(N)=O [BCH758, H-Tyr-D-Ala-2′-Nal-1′-Nal-NH2] (H-Y[dA][2Nal][1Nal]-NH2)	0.00561	>20	
C[C@@H](NC(=O)[C@@H](N)Cc1ccc(O)cc1)C(=O)N[C@H](Cc1ccccc1)C(=O)N[C@@H](Cc1ccccc1)C(N)=O [BCH1775, H-Tyr-D-Ala-D-Phe-Phe-NH2] (H-Y[dA][dF]F-NH2)			Ki [1]: 0.026 µM; IC50 [2]: 0.925 µM
C[C@@H](NC(=O)[C@@H](N)Cc1ccc(O)cc1)C(=O)N[C@@H](Cc1ccccc1)C(=O)N[C@@H](Cc1ccc(N=[N+]=[N-])cc1)C(N)=O [BCH1778, H-Tyr-D-Ala-Phe-Phe(4-N3)—NH2] (H-Y[dA]F[Phe(4-N3)]-NH2)	0.00149		IC50 ([2]; GPI(IC50), Table 1): 0.05 µM
C[C@@H](NC(=O)[C@@H](N)Cc1ccc(O)cc1)C(=O)N[C@@H](Cc1ccc([N+](=O)[O-])cc1)C(=O)N[C@@H](Cc1ccccc1)C(N)=O [BCH1779, H-Tyr-D-Ala-Phe(4-NO2)-Phe-NH2] (H-Y[dA][Phe(4-NO2)]F-NH2)	0.0568		IC50 ([2]; GPI(IC50), Table 1): 0.077 µM
C[C@@H](NC(=O)[C@@H](N)Cc1ccc(O)cc1)C(=O)N[C@@H](Cc1ccccc1)C(=O)N1Cc2ccccc2C[C@H]1C(N)=O [BCH1780, H-Tyr-D-Ala-Phe-Tic-NH2] (H-Y[dA]F[Tic]-NH2)	0.0127		
C[C@@H](NC(=O)[C@@H](N)Cc1ccc(O)cc1)C(=O)N[C@@H](Cc1ccccc1)C(=O)N(C)[C@@H](Cc1ccccc1)C(N)=O [BCH1781, H-Tyr-D-Ala-Phe-Phe(NMe)-NH2] (H-Y[dA]F[NMeF]-NH2)	0.0226		IC50 ([2]; GPI(IC50), Table 1): 0.241 µM
C[C@@H](NC(=O)[C@@H](N)Cc1ccc(O)cc1)C(=O)N[C@@H](Cc1cccc2ccccc12)C(=O)N[C@@H](Cc1cccc2ccccc12)C(N)=O [BCH1783, H-Tyr-D-Ala-1′-Nal-1′-Nal-NH2] (H-Y[dA][1Nal][1Nal]-NH2)	0.00288	>20	
C[C@@H](NC(=O)[C@@H](N)Cc1ccc(O)cc1)C(=O)N[C@@H](Cc1c[nH]c2ccccc12)C(=O)N[C@@H](Cc1c[nH]c2ccccc12)C(N)=O [BCH1786, H-Tyr-D-Ala-Trp-Trp-NH2] (H-Y[dA]WW-NH2)	0.000833	10	
CCCC[C@@H](NC(=O)[C@@H](N)Cc1ccc(O)cc1)C(=O)N[C@@H](Cc1ccccc1)C(=O)N[C@@H](Cc1c[nH]c2ccccc12)C(N)=O [BCH2208, H-Tyr-D-Nle-Phe-Trp-NH2] (H-Y[dNle]FW-NH2)		>3	
CCCC[C@@H](NC(=O)[C@@H](N)Cc1ccc(O)cc1)C(=O)N[C@@H](Cc1ccccc1)C(=O)N[C@@H](Cc1ccc2ccccc2c1)C(N)=O [BCH2211, H-Tyr-D-Nle-Phe-2′-Nal-NH2] (H-Y[dNle]F[2Nal]-NH2)		>10	
CCCC[C@@H](NC(=O)[C@@H](N)Cc1ccc(O)cc1)C(=O)N[C@@H](Cc1c[nH]c2ccccc12)C(=O)N[C@@H](Cc1ccccc1)C(N)=O [BCH2212, H-Tyr-D-Nle-Trp-Phe-NH2] (H-Y[dNle]WF-NH2)		>10	
C[C@@H](NC(=O)[C@@H](N)Cc1ccc(O)cc1)C(=O)N[C@@H](Cc1c[nH]c2ccccc12)C(=O)N[C@@H](Cc1ccc2ccccc2c1)C(N)=O [BCH2213, H-Tyr-D-Ala-Trp-2′-Nal-NH2] (H-Y[dA]W[2Nal]-NH2)		>5	
CCCC[C@@H](NC(=O)[C@@H](N)Cc1ccc(O)cc1)C(=O)N[C@@H](Cc1c[nH]c2ccccc12)C(=O)N[C@@H](Cc1ccc2ccccc2c1)C(N)=O [BCH2214, H-Tyr-D-Nle-Trp-2′-Nal-NH2] (H-Y[dNle]W[2Nal]-NH2)		15	
CCCC[C@@H](NC(=O)[C@@H](N)Cc1ccc(O)cc1)C(=O)N[C@@H](Cc1c[nH]c2ccccc12)C(=O)N[C@@H](Cc1c[nH]c2ccccc12)C(N)=O [BCH2217, H-Tyr-D-Nle-Trp-Trp-NH2] (H-Y[dNle]WW-NH2)		>5	
CC(C)[C@@H](NC(=O)[C@@H](N)Cc1ccc(O)cc1)C(=O)N[C@@H](Cc1ccccc1)C(=O)N[C@@H](Cc1ccccc1)C(N)=O [BCH2464, H-Tyr-D-Val-Phe-Phe-NH2] (H-Y[dV]FF-NH2)		>10	
CC(C)C[C@@H](NC(=O)[C@@H](N)Cc1ccc(O)cc1)C(=O)N[C@@H](Cc1ccccc1)C(=O)N[C@@H](Cc1ccccc1)C(N)=O [BCH2465, H-Tyr-D-Leu-Phe-Phe-NH2] (H-Y[dL]FF-NH2)		>10	
CC[C@@H](C)[C@@H](NC(=O)[C@@H](N)Cc1ccc(O)cc1)C(=O)N[C@@H](Cc1ccccc1)C(=O)N[C@@H](Cc1ccccc1)C(N)=O [BCH2473, H-Tyr-D-Ile-Phe-Phe-NH2] (H-Y[dI]FF-NH2)		>10	
CC[C@@H](NC(=O)[C@@H](N)Cc1ccc(O)cc1)C(=O)N[C@@H](Cc1ccccc1)C(=O)N[C@@H](Cc1ccccc1)C(N)=O [BCH2577, H-Tyr-D-Abu-Phe-Phe-NH2] (H-Y[dAbu]FF-NH2)		>10	
NC(=O)[C@H](Cc1ccccc1)NC(=O)[C@H](Cc1ccccc1)NC(=O)C1(NC(=O)[C@@H](N)Cc2ccc(O)cc2)CCCC1 [BCH2579, H-Tyr-Cle-Phe-Phe-NH2] (H-Y[Ac5c]FF-NH2)		>10	
C[C@H](O)[C@@H](NC(=O)[C@@H](N)Cc1ccc(O)cc1)C(=O)N[C@@H](Cc1ccccc1)C(=O)N[C@@H](Cc1ccccc1)C(N)=O [BCH2811, H-Tyr-D-Thr-Phe-Phe-NH2] (H-Y[dT]FF-NH2)		12	
C[C@@H](NC(=O)[C@@H](N)Cc1ccc(O)cc1)C(=O)N[C@@H](Cc1ccccc1)C(=O)N[C@@H](CSCc1ccccc1)C(N)=O [BCH3240, H-Tyr-D-Ala-Phe-Cys(Bzl)NH2] (H-Y[dA]FC(Bn)-NH2)	0.0053		IC50 ([2]; GPI(IC50), Table 1): 0.00916 µM
N=C(N)NCCC[C@@H](NC(=O)[C@@H](N)Cc1ccc(O)cc1)C(=O)N[C@@H](Cc1ccccc1)C(=O)N[C@@H](CSCc1ccccc1)C(N)=O [BCH3241, H-Tyr-D-Arg-Phe-Cys(Bzl)NH2] (H-Y[dR]FC(Bn)-NH2)	0.00695		IC50 ([2]; GPI(IC50), Table 1): 0.033 µM
H-Tyr-Chl-Phe-Phe-NH2 [BCH2578]		>10	
H-Tyr-∇Ala-Phe-Phe-NH2 [BCH1787]		10	
∇CH2Tyr-D-Ala-Phe-Phe-NH2 [BCH2202]		>10	
